Source: BindingDB's records for doi:10.1016/j.chembiol.2011.05.012 (University of Bern, 2011)
Where “and” joins values, the source holds several entries; their conditions need not be identical. Equal values may be shown once.

What was measured:
Cannabinoid receptor 1 = Cannabinoid receptor 1 (Homo sapiens, UniProt P21554); assay: Binding Assay
From the text: (§1) Binding assay with hCB1 and hCB2 receptors.

Cannabinoid receptor 2 = Cannabinoid receptor 2 (Homo sapiens, UniProt P34972); assay: Binding Assay
Sequence of Cannabinoid receptor 2 (P34972 whole entry): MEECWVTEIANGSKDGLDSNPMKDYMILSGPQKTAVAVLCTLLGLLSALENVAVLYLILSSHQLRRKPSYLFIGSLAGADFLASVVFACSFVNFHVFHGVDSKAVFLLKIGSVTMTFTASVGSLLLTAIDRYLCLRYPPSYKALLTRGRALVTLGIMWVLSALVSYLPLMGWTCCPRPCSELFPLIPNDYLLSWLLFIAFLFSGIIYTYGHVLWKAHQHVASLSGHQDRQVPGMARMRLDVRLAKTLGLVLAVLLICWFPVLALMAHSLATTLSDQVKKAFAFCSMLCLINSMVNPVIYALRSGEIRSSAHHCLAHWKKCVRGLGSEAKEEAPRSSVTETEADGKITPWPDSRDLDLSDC
From the text: as §1

Sequence of Cannabinoid receptor 1 (P21554 whole entry): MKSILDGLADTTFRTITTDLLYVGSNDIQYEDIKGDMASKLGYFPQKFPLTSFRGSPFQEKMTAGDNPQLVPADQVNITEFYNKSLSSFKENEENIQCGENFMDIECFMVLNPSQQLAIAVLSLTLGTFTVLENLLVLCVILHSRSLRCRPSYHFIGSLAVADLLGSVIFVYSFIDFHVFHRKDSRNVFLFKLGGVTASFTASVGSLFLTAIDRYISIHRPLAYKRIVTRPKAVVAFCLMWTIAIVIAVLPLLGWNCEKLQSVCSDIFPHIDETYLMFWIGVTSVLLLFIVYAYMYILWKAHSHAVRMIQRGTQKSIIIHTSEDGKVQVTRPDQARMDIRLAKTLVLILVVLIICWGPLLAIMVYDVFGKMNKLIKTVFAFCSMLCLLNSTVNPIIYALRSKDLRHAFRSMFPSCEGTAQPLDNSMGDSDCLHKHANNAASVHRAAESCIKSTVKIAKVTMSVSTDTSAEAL

Row | SMILES | Ki (Cannabinoid receptor 1) [nM] | Ki (Cannabinoid receptor 2)
1 | CCCc1ccc(O)c(-c2ccc(O)c(CCC)c2)c1 | > 5000 | 1300 nM
2 | CCCc1ccc(O)c(-c2ccc(OC)c(CCC)c2)c1 | > 2000 | 74 nM
3 | C=CCc1ccc(O)c(-c2cc(CC=C)ccc2O)c1 [2-(2-hydroxy-5-prop-2-enylphenyl)-4-prop-2-enylphenol] | – | > 2000 nM
4 | CCCCC/C=C/C/C=C/C/C=C/C/C=C/CCCC(=O)OC(CO)CO [2-Arachidonoylglycerol, 2-AG] | – | 892 nM
5 | C=CCc1ccc(O)c(-c2ccc(O)c(CC=C)c2)c1 [3',5-diallylbiphenyl-2,4'-diol] | – | 1760 nM
6 | C=CCc1ccc(O)c(-c2ccc(OC)c(/C=C/C)c2)c1 [Magreth-3a] | > 5000 | 40.8 nM and 59.1 nM
7 | C=CCc1ccc(O)c(-c2ccc(O)c(/C=C/C)c2)c1 [Magreth-4] | > 5000 | 1760 nM
8 | C=CCc1cc(-c2cc(CC(C)Br)ccc2O)ccc1OC (stereo unspecified) [Magreth-11a] | > 5000 | 1080 nM
9 | C=CCc1ccc(O)c(-c2ccc(OC)c(CC(C)Br)c2)c1 (stereo unspecified) [Magreth-11b] | 860 | 84 nM
10 | COc1ccc(-c2cc(CC(C)Br)ccc2O)cc1CC(C)Br (stereo unspecified) [Magreth-11c] | > 5000 | 427 nM
11 | C=CCc1cc(-c2cc(CC(C)Br)ccc2O)ccc1O (stereo unspecified) [Magreth-12a] | > 5000 | 1260 nM
12 | CC(Br)Cc1ccc(O)c(-c2ccc(O)c(CC(C)Br)c2)c1 (stereo unspecified) [Magreth-12b] | > 5000 | 680 nM
13 | C=CCc1ccc(O)c(-c2ccc(OC)c(CC=C)c2)c1 [Magreth-14a] | 790 | 43.9 nM and 138 nM
14 | C=CCc1ccc(OCC)c(-c2ccc(O)c(CC=C)c2)c1 [Magreth-16a] | – | 51 nM
15 | C=CCc1ccc(O)c(-c2ccc(OCC)c(CC=C)c2)c1 [Magreth-16b] | 970 | 40 nM
16 | C=CCc1ccc(OCCC)c(-c2ccc(O)c(CC=C)c2)c1 [Magreth-17a] | > 5000 | 57 nM
17 | C=CCc1ccc(O)c(-c2ccc(OCCC)c(CC=C)c2)c1 [Magreth-17b] | > 5000 | 46 nM
18 | C=CCc1ccc(OCCCCC)c(-c2ccc(O)c(CC=C)c2)c1 [Magreth-18a] | > 5000 | 102 nM
19 | C=CCc1ccc(O)c(-c2ccc(OCCCCC)c(CC=C)c2)c1 [Magreth-18b] | > 5000 | > 3000 nM
20 | C=CCc1ccc(OCC)c(-c2ccc(OCC)c(CC=C)c2)c1 [Magreth-19] | > 3000 | 134 nM
